Patent US20230078764A1 (Yumanity Therapeutics, Inc., priority 2019, published 2023)
Like-named read-outs stand apart in the source and are kept apart here.

How the values were obtained:
human SCD1 = molecular target: T1, human SCD1 (Homo sapiens, UniProt O00767); assay: Growth inhibition of yeast strain expressing human SCD1 as sole desaturase (OLE1 deleted), OD600 readout; format: cell-based
T1 construct: expressed in transfected cells; host or cells: yeast strain with OLE1 deleted, plasmid-borne human SCD1 (selected in SD-Ura)
T1 sequence (O00767 1-359): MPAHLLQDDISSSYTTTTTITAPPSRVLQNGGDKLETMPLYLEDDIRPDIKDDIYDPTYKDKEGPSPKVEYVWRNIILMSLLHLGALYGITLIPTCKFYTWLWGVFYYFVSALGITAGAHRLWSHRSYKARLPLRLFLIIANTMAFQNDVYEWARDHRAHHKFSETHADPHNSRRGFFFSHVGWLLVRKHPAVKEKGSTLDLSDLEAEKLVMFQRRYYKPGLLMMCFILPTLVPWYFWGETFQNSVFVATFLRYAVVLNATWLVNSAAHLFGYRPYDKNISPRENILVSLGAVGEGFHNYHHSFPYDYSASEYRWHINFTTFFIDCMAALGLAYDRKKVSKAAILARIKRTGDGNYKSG

human SCD5 = molecular target: T2, human SCD5 (Homo sapiens, UniProt Q86SK9); assay: Growth inhibition of yeast strain expressing human SCD5 as sole desaturase (OLE1 deleted), OD600 readout; format: cell-based
T2 construct: expressed in transfected cells; host or cells: yeast strain with OLE1 deleted, plasmid-borne human SCD5 (selected in SD-Ura)
T2 sequence (Q86SK9 1-330): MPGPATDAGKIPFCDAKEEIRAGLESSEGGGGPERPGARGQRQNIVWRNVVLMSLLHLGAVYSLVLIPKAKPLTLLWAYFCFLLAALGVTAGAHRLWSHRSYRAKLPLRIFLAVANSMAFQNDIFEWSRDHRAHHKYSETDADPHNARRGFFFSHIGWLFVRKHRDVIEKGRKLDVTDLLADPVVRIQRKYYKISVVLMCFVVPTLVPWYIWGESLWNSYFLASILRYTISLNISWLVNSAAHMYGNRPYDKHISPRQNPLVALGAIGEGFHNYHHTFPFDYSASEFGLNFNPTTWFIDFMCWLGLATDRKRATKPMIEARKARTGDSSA

[1] = yeast strain expressing human SCD1 as sole desaturase, growth (OD600) after 40 h at 30° C., read-out: SCD1 IC50
[2] = yeast strain expressing human SCD5 as sole desaturase, growth (OD600) after 40 h at 30° C., read-out: SCD5 IC50

| IC50 (human SCD1; [1]) [µM] | IC50 (human SCD5; [2]) [µM] | Structure (SMILES) | IC50 (human SCD1; SCD1 IC50) [µM] | IC50 (human SCD5; SCD5 IC50) [µM] |
| --- | --- | --- | --- | --- |
| > 45 | 1.3 | O=C(Nc1ccc(Cc2cccc(F)c2)cn1)c1cc2ncnc(Cl)c2s1 [Compound 527] |  |  |
| 1.9 | 0.36 | Cn1cc(C(=O)Nc2ccc(Cc3cccc(F)c3F)cn2)ccc1=O [Compound 552] |  |  |
| 2.4 | 0.37 | Cn1cc(C(=O)Nc2ccc(Cc3ccc(F)c(C#N)c3)cn2)ccc1=O [Compound 550] |  |  |
| > 45 | > 45 | CN1N=C(C(=O)Nc2nnc(Cc3cccc(Cl)c3)[nH]2)CCC1=O [Compound 407] |  |  |
| > 45 | > 45 | CN1N=C(C(=O)Nc2cnn(Cc3cccc(Cl)c3)c2)CCC1=O [Compound 405] |  |  |
| > 45 | 0.014 | Cn1nc(C(=O)Nc2ccc(Cc3cc(Cl)cc(C#N)c3)cn2)ccc1=O [Compound 626] |  |  |
| 0.68 | 0.71 | Cn1nc(C(=O)Nc2nnc(Cc3ccc(F)c(Cl)c3)s2)ccc1=O [Compound 347] |  |  |
| 25.8 | 4 | O=C(Nc1ccc(COc2ccc(F)c(Cl)c2)cn1)c1ccc(=O)n(C2CC2)c1 [Compound 365] |  |  |
| 3.95 | 2.52 | Cn1nc(C(=O)Nc2nnc(Cc3cccc(F)c3)s2)ccc1=O [Compound 345] |  |  |
| > 45 | 1.32 | N#Cc1ccc(C(=O)Nc2ccc(CC3CCCCC3)cn2)cn1 [Compound 327] |  |  |
| 0.222 | 0.01 | Cn1cc(NC(=O)c2ccc(Cc3ccc(F)cc3)cn2)ccc1=O [Compound 496] |  |  |
|  |  | Cn1cc(C(=O)Nc2ccc(Cc3cc(F)cc(F)c3)cn2)ccc1=O [Compound 59, N-(5-(3,5-difluorobenzyl)pyridin-2-yl)-1-methyl-6-oxo-1,6-dihydropyridine-3-carboxamide] | 0.31 | 0.01 |
| 0.012 | 0.01 | O=C(Nc1ccc(Cc2ccc(F)c(F)c2)cn1)c1cncc(CO)c1 [Compound 503] |  |  |
| > 45 | > 45 | CCn1cc(C(=O)Nc2ccc(Cc3ccc(F)cc3)nn2)ccc1=O [Compound 379] |  |  |
| 12.7 | 6.07 | Cn1nc(NC(=O)N[C@H]2CC[C@@H](Cc3cccc(Cl)c3)CC2)ccc1=O [Compound 322] |  |  |
| 0.37 | 0.28 | Cn1nccc(NC(=O)c2ccc(Cc3cccc(F)c3)cn2)c1=O [Compound 109, 5-(3-fluorobenzyl)-N-(2-methyl-3-oxo-2,3-dihydropyridazin-4-yl)picolinamide] |  |  |
| > 45 | > 45 | Cn1nc(C(=O)N2CCC(Oc3cccc(Cl)c3)CC2)ccc1=O [Compound 432] |  |  |
| > 45 | 1.58 | C=C(OCC)c1ccc(C(=O)Nc2ccc(Cc3cccc(Cl)c3)cn2)cn1 [Compound 320] |  |  |
| 9.69 | 0.07 | CN1N=C(NC(=O)c2ccc(Cc3cccc(Cl)c3)cn2)CCC1=O [Compound 86, 5-(3-Chlorobenzyl)-N-(1-methyl-6-oxo-1,4,5,6-tetrahydropyridazin-3-yl)picolinamide] |  |  |
| 1.73 | 0.58 | Cn1nc(C(=O)Nc2ccc(Cc3cccc(F)c3)cc2)ccc1=O [Compound 4, N-(4-(3-fluorobenzyl)phenyl)-1-methyl-6-oxo-1,6-dihydropyridazine-3-carboxamide] |  |  |
| 0.01 | 0.01 | Cn1ccc(C(=O)Nc2ccc(Cc3cccc(Cl)c3)cn2)n1 [Compound 91, N-(5-(3-chlorobenzyl)pyridin-2-yl)-1-methyl-1H-pyrazole-3-carboxamide] |  |  |
| > 45 | 0.07 | O=C(Nc1ccc(Cc2cccc(F)c2)cn1)c1csc(Br)n1 [Compound 632] |  |  |
| 4.06 | 0.05 | Cn1cc(NC(=O)c2ccc(Cc3cccc(F)c3)cn2)ccc1=O [Compound 357] |  |  |
| > 45 | > 45 | CN1N=C(C(=O)Nc2ncc(Cc3cccnc3)s2)CCC1=O [Compound 398] |  |  |

| IC50 (human SCD1; [1]) [µM] | IC50 (human SCD5; [2]) [µM] | Structure (SMILES) | IC50 (human SCD1; SCD1 IC50) [µM] | IC50 (human SCD5; SCD5 IC50) [µM] |
| --- | --- | --- | --- | --- |
| > 45 | 0.71 | CN1N=C(C(=O)Nc2ccc(CC3=CCCCC3)cn2)CCC1=O [Example 34, N-(5-(cyclohexenylmethyl)pyridin-2-yl)-1-methyl-6-oxo-1,4,5,6-tetrahydropyridazine-3-carboxamide] |  |  |
| > 45 | 0.544 | CCn1nc(C(=O)Nc2ccc(Cc3cccc(Cl)c3)cn2)cc1O [Compound 489] |  |  |
| 1.3 | 0.34 | CCc1cc(C(=O)Nc2ccc(Cc3cccc(F)c3)cn2)nn(C)c1=O [Compound 531] |  |  |
| 0.34 | 0.55 | Cn1nc(C(=O)Nc2nnc(Cc3cc(F)cc(Cl)c3)s2)ccc1=O [Compound 346] |  |  |
| 1.24 | > 45 | CS(=O)(=O)c1cccc(C(=O)Nc2ccc(Cc3cccc(F)c3)cn2)c1 [Compound 391] |  |  |
| 0.05 | 0.01 | Cc1nccc(C(=O)Nc2ccc(Cc3cc(F)cc(F)c3)cn2)n1 [Compound 242] |  |  |
| > 45 | 12 | CNC(=O)c1ccnc(C(=O)Nc2ccc(Oc3ccccc3Cl)cn2)c1 [Compound 675] |  |  |
| > 45 | 2.2 | O=C(Nc1ccc(Cc2cccc(F)c2)cn1)c1ncc(Br)cn1 [Compound 490] |  |  |
| 1.95 | 0.02 | CN1N=C(C(=O)Nc2ccc(Cc3cc(F)cc(Cl)c3)cn2)CCC1=O [Example 28, N-(5-(3-chloro-5-fluorobenzyl)pyridin-2-yl)-1-methyl-6-oxo-1,4,5,6-tetrahydropyridazine-3-carboxamide] |  |  |
| > 45 | 0.034 | O=C(Nc1ccc(Cc2cc(F)cc(F)c2)cn1)c1cnc(Cl)c(Cl)c1 [Compound 601] |  |  |
| 6.78 | 0.28 | CC(=O)c1ccc(C(=O)Nc2ccc(Cc3cccc(Cl)c3)cn2)cn1 [Compound 354] |  |  |
| > 45 | 3.25 | O=C(Nc1ccc(Cc2cccc(Cl)c2)cn1)c1ccc(=O)n(C2COC2)c1 [Compound 273] |  |  |
| 2.5 | 5.3 | C#Cn1nc(C(=O)Nc2ccc(Cc3cccc(Cl)c3)cn2)ccc1=O [Compound 521] |  |  |
| 0.63 | 0.07 | Cn1cc(C(=O)Nc2ccc(Cc3cccc(F)c3)cn2)cc(F)c1=O [Compound 117, 5-fluoro-N-(5-(3-fluorobenzyl)pyridin-2-yl)-1-methyl-6-oxo-1,6-dihydropyridine-3-carboxamide] |  |  |
| > 45 | > 45 | Cn1cc(C(=O)Nc2nnc(Cc3ccc(F)cc3)s2)ccc1=O [Compound 473] |  |  |
| > 45 | 2.49 | CN1N=C(C(=O)Nc2ccc(Cc3cccc(C4CC4)c3)cn2)CCC1=O [Example 23, N-(5-(3-cyclopropylbenzyl)pyridin-2-yl)-1-methyl-6-oxo-1,4,5,6-tetrahydropyridazine-3-carboxamide] |  |  |
| > 45 | 1.8 | Cn1nc(C(=O)Nc2ccc(COc3ccc(Cl)cc3)cn2)ccc1=O [Compound 670] |  |  |
| 1.3 | 0.21 | O=C(Nc1ccc(Cc2cccc(F)c2)cn1)c1coc(Cl)n1 [Compound 645] |  |  |
| > 45 | > 45 | CCn1cc(C(=O)Nc2ccc(Cc3cccc(F)c3)nn2)ccc1=O [Compound 410] |  |  |
| > 45 | > 45 | CN1C(=O)OC[C@H]1C(=O)Nc1ccc(Cc2cccc(F)c2)cn1 [Compound 458] |  |  |
| > 45 | 1.06 | Cc1cc(C(=O)Nc2ccc(Cc3cccc(F)c3)cn2)no1 [Compound 107, N-(5-(3-fluorobenzyl)pyridin-2-yl)-5-methylisoxazole-3-carboxamide] |  |  |
| 4 | 0.24 | Cn1nc(C(=O)Nc2ccc(NCc3cccc(Cl)c3)cn2)ccc1=O [Compound 286] |  |  |
| 0.1 | 0.077 | CC(O)c1ccc(C(=O)Nc2ccc(Cc3cccc(Cl)c3)cn2)nc1 (stereo not drawn) [Compound 510] |  |  |

| Structure (SMILES) | IC50 (human SCD1; [1]) [µM] | IC50 (human SCD5; [2]) [µM] | IC50 (human SCD1; SCD1 IC50) [µM] | IC50 (human SCD5; SCD5 IC50) [µM] |
| --- | --- | --- | --- | --- |
| Cn1nc(C(=O)Nc2ccc(Oc3ccc(F)c(Cl)c3)cn2)ccc1=O [Compound 168, N-[5-(3-chloro-4-fluorophenoxy)pyridin-2-yl]-1-methyl-6-oxo-1,6-dihydropyridazine-3-carboxamide] | > 45 | 1.72 |  |  |
| Cn1nc(C(=O)Nc2ccc(Cc3cccc(F)c3)cn2)cc1O [Compound 106, N-(5-(3-fluorobenzyl)pyridin-2-yl)-5-hydroxy-1-methyl-1H-pyrazole-3-carboxamide] | > 45 | 1.24 |  |  |
| O=C(Nc1ccc(Cc2ccc(F)cc2)cn1)c1ccc(CO)nc1 [Compound 116, N-(5-(4-fluorobenzyl)pyridin-2-yl)-6-(hydroxymethyl)nicotinamide] | 0.01 | 0.01 |  |  |
| CN1N=C(C(=O)Nc2ccc(COc3cccc(Cl)c3)nn2)CCC1=O [Compound 181, N-(6-((3-chlorophenoxy)methyl)pyridazin-3-yl)-1-methyl-6-oxo-1,4,5,6-tetrahydropyridazine-3-carboxamide] | > 45 | 1.22 |  |  |
